Target: T1, TGM2 (in MC3T3-E1 cells) (Mus musculus, UniProt P21981)
T1 construct: native full-length protein in MC3T3-E1 pre-osteoblast cells
T1 sequence (P21981 2-686): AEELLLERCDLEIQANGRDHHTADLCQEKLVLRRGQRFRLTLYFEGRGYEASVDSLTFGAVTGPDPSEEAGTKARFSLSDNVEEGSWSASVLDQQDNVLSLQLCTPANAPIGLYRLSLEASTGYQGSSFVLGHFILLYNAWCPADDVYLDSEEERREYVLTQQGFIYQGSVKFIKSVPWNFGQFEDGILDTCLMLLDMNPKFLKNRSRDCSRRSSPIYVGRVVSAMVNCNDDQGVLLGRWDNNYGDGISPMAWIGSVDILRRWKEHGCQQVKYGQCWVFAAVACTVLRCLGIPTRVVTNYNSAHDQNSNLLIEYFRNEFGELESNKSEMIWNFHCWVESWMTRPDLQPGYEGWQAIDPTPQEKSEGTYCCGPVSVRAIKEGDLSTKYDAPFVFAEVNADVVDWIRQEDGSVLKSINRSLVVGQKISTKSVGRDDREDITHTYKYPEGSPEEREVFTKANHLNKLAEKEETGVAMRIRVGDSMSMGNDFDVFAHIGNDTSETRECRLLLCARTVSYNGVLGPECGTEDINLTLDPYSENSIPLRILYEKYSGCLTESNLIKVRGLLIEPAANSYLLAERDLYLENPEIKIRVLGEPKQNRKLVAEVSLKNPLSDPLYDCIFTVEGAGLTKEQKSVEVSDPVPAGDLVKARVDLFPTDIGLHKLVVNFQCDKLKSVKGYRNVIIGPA
Assay: CETSA; DARTS
Format: cell-based

C=C[C@@]1(C)CC(=O)[C@]2(O)[C@@]3(C)[C@@H](O)CCC(C)(C)[C@@H]3[C@H](O)[C@H](OC(C)=O)[C@@]2(C)O1 [Forskolin]
thermal stabilisation (CETSA): FSK enhanced the thermal stability of TGM2

Source: PMC10288273, “Allosteric Activation of Transglutaminase 2 via Inducing an “Open” Conformation for Osteoblast Differentiation” (Advanced Science, 2023)
